Test results: PubChem BioAssay (NCI)
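Results reflect a 48-hour exposure of cells in 96-well plates to compound at five concentrations. At the GI50, growth is halved. TGI: concentration producing complete growth inhibition.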

Tests used:
Test in all cases: inhibition of tumour cell growth, NCI panel, 48 h
MDA-N = tested on: MDA-N
K-562 leukemia = tested on: K-562 leukemia
COLO 205 colon = tested on: COLO 205 colon
MCF7 breast = tested on: MCF7 breast
SNB-19 CNS = tested on: SNB-19 CNS
LOX IMVI melanoma = tested on: LOX IMVI melanoma
UO-31 renal = tested on: UO-31 renal
OVCAR-3 ovarian = tested on: OVCAR-3 ovarian
DU-145 prostate = tested on: DU-145 prostate

Structure (SMILES)	TGI (MDA-N)	TGI (K-562 leukemia)	TGI (COLO 205 colon)	TGI (MCF7 breast)	TGI (SNB-19 CNS)	TGI (LOX IMVI melanoma)	TGI (UO-31 renal)	TGI (OVCAR-3 ovarian)	TGI (DU-145 prostate)	GI50 (DU-145 prostate)	GI50 (SNB-19 CNS)	GI50 (UO-31 renal)	GI50 (OVCAR-3 ovarian)	GI50 (K-562 leukemia)	GI50 (COLO 205 colon)	GI50 (MCF7 breast)	GI50 (LOX IMVI melanoma)
C/C(Cl)=N\OC(=O)Nc1ccc(C)cc1	29.9 µM	> 100 µM	33.3 µM	25.3 µM	> 100 µM	43.7 µM	31.3 µM	34.3 µM	–	–	–	–	–	–	–	–	–
O=[N+]([O-])c1ccc(NC(=S)N=Nc2c(O)[nH]c3ccc([N+](=O)[O-])cc23)cc1	41.7 µM	> 100 µM	> 100 µM	84.1 µM	69.3 µM	49.1 µM	45.1 µM	47.5 µM	49 µM	–	–	–	–	–	–	–	–
CCc1c(CNc2ccc(C(=O)NC(CC(=O)O)C(=O)O)cc2)ccc2nc(N)nc(N)c12 (stereo not drawn)	> 1000 µM	> 1000 µM	–	> 1000 µM	> 1000 µM	> 1000 µM	> 1000 µM	> 1000 µM	> 1000 µM	0.148 µM	0.188 µM	0.212 µM	52.8 µM	–	–	–	–
Cc1c(CN2CCN(C)CC2)c(CN2CCN(C)CC2)c(C)n1-c1ccc(Cl)cc1	58.5 µM	> 100 µM	55.5 µM	> 100 µM	> 100 µM	–	87.9 µM	> 100 µM	> 100 µM	–	–	–	–	–	–	–	–
O=C1NC2CCCCC2N=C1CC(=O)c1ccc(Br)cc1 (stereo not drawn)	> 100 µM	> 100 µM	> 100 µM	> 100 µM	> 100 µM	> 100 µM	> 100 µM	> 100 µM	> 100 µM	–	–	–	–	–	–	–	–
COc1ccccc1C1Nn2c(nc3ccccc3c2=O)N1c1ccc(C)cc1 (stereo not drawn)	20.9 µM	33.8 µM	21.2 µM	26.3 µM	21.2 µM	20.8 µM	21.2 µM	18.6 µM	28.2 µM	–	–	–	–	–	–	–	–
COc1cc(CC(C)NC(C)=O)cc(OC)c1 (stereo not drawn)	> 100 µM	> 100 µM	> 100 µM	> 100 µM	> 100 µM	> 100 µM	> 100 µM	> 100 µM	> 100 µM	–	–	–	–	–	–	–	–
Cc1cc(C)c2c(=O)cc(-c3cccc(F)c3)[nH]c2n1	–	> 32.1 µM	0.354 µM	2.16 µM	> 100 µM	22 µM	> 100 µM	0.318 µM	> 45.3 µM	–	–	–	–	–	–	–	–
COc1ccc(/C=c2\s/c(=C3/SC(=S)N(c4ccccc4)C3=O)n(-c3ccccc3)c2=O)cc1	> 100 µM	> 100 µM	> 100 µM	> 100 µM	> 100 µM	> 100 µM	> 100 µM	> 100 µM	> 100 µM	–	–	–	–	–	–	–	–
Cc1cc(S(=O)(=O)Nc2n[nH]c(-c3ccccn3)n2)c(S)cc1Cl	> 100 µM	–	90.6 µM	> 100 µM	60.6 µM	> 100 µM	10.5 µM	64.3 µM	96 µM	–	–	–	–	–	–	–	–
CC(=O)OCC1OC(n2c(-c3ccccc3)c(N=Nc3ccccc3)c(C)c(C#N)c2=S)C(OC(C)=O)C(OC(C)=O)C1OC(C)=O (stereo not drawn)	> 100 µM	> 100 µM	> 100 µM	> 100 µM	> 100 µM	> 100 µM	> 100 µM	> 100 µM	> 100 µM	–	–	–	–	–	–	–	–
COc1cc(C(=O)Oc2ccc3c(c2)OCO3)cc(OC)c1OC	> 100 µM	–	> 100 µM	> 100 µM	> 100 µM	> 100 µM	> 100 µM	> 100 µM	> 100 µM	–	–	–	–	–	–	–	–
Cc1cc2ncn(C3CCCCO3)c2cc1C (stereo not drawn)	> 100 µM	> 100 µM	> 100 µM	> 100 µM	> 100 µM	> 100 µM	75.1 µM	> 100 µM	> 100 µM	–	–	–	–	–	–	–	–
c1cncc(CC2(c3cc4ccccc4[nH]3)OCCO2)c1	> 100 µM	–	> 100 µM	> 100 µM	> 100 µM	> 100 µM	> 100 µM	–	> 100 µM	–	–	–	–	–	–	–	–
CN(C)c1ccc(/C=C(\NC(=O)c2ccccc2)c2nn(C)c(=O)o2)cc1	> 100 µM	> 100 µM	> 100 µM	> 100 µM	80 µM	> 100 µM	> 100 µM	> 100 µM	> 100 µM	–	–	–	–	–	–	–	–
Cc1ccc2c(c1)-c1c(C#N)c(N)nc(-c3ccc(Cl)cc3)c1CCS2(=O)=O	8.88 µM	7.02 µM	31.3 µM	> 100 µM	> 100 µM	> 100 µM	> 100 µM	44.4 µM	> 100 µM	–	–	–	–	–	–	–	–
C/C=C(/C)C(=O)OC1CC(C)[C@H]2CC(=O)C(C)=C2CC1C(C)(C)OC(C)=O (stereo partly drawn)	> 100 µM	> 100 µM	43.8 µM	> 100 µM	> 100 µM	36.2 µM	83.9 µM	45.4 µM	> 100 µM	–	–	–	–	–	–	–	–
CN(C)CCCNC(=O)c1cc(NC(=O)c2cc(NC(=O)CCCn3c4ccccc4c4ccccc43)cn2C)cn1C	–	11.6 µM	7.88 µM	39 µM	28.3 µM	> 50.9 µM	> 58.2 µM	> 72.5 µM	40.8 µM	–	–	–	–	–	–	–	–
CC[C@H](Nc1nc(C)nc(N)c1C#N)c1nc2cccc(NCc3ccc(C(=O)NO)cc3)c2c(=O)n1-c1ccccc1	–	> 100 µM	3.8 µM	5.89 µM	3.97 µM	3.04 µM	2.47 µM	2.96 µM	4.89 µM	2.01 µM	1.63 µM	1.21 µM	1.48 µM	2.2 µM	1.74 µM	2.07 µM	1.65 µM
COc1ccc(Nc2nc(N)c(C(=O)c3c[nH]c4ccccc34)s2)cc1	0.878 µM	–	4.06 µM	18.8 µM	> 100 µM	> 100 µM	> 100 µM	4.14 µM	10.2 µM	–	–	–	–	–	–	–	–
Cn1c(=O)c2c(nc3n(Cc4ccccc4)c(=O)c(NCCCBr)cn23)n(C)c1=O	–	> 100 µM	> 100 µM	> 100 µM	> 100 µM	> 100 µM	> 100 µM	> 100 µM	> 100 µM	–	–	–	–	–	–	–	–
S=C(N/N=C\C(=N/NC(=S)N1CCCCC1)c1ccccc1)N1CCCCC1	> 100 µM	> 100 µM	3.86 µM	> 22.4 µM	3.84 µM	> 100 µM	3.39 µM	3.68 µM	3.02 µM	–	–	–	–	–	–	–	–
